Test results: patent US20250282768A1 (Janssen Pharmaceutica NV, priority 2022, published 2025)

Test system: p-IKKa levels in L363 (NIK translocated multiple myeloma) cells
Assay: Assay 2: Effect of compounds on p-IKKa levels in L363 (NIK translocated multiple myeloma) cells
Type: cell-based
Details: Homo sapiens, L-363, 6 h, read-out: Assay 2 IC50 (nM), p-IKKa (Ser 176/180) in BAFF stimulated L363 cells with MG132, 6 h; average if tested more than once
Method in brief: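 L363 cells incubated overnight ± 250 ng/ml BAFF, then 6 h at 37 °C with compound (0.3% DMSO) ± 10 μM MG132. Lysates assayed for p-IKKa (Ser176/180) by AlphaLISA SureFire. IC50 from sigmoidal fit of % inhibition normalized to BAFF/MG132-stimulated and unstimulated controls.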

Q: `CN1CC[C@@](O)(c2cc(-c3cccc(-c4ccnc(Nc5cn(C)nc5Cl)n4)n3)no2)C1=O` [Example 296, (R)-3-(3-(6-(2-((3-Chloro-1-methyl-1H-pyrazol-4-yl)amino)pyrimidin-4-yl)pyridin-2-yl)isoxazol-5-yl)-3-hydroxy-1-methylpyrrolidin-2-one] was tested. Which IC50 did it give?
A: < 50 nM

Q: For `CN1CC[C@@](O)(c2cc(-c3cccc(-c4ccnc(Nc5cnn(C)c5Cl)n4)n3)no2)C1=O` [Example 297, (R)-3-(3-(6-(2-((5-Chloro-1-methyl-1H-pyrazol-4-yl)amino)pyrimidin-4-yl)pyridin-2-yl)isoxazol-5-yl)-3-hydroxy-1-methylpyrrolidin-2-one], which IC50 is on record?
A: < 50 nM

Q: Which IC50 does the source give for `Cc1nccc(Nc2nccc(-c3cccc(-c4cc([C@]5(O)CCN(C)C5=O)on4)n3)n2)n1` [Example 298, (R)-3-Hydroxy-1-methyl-3-(3-(6-(2-((2-methylpyrimidin-4-yl)amino)pyrimidin-4-yl)pyridin-2-yl)isoxazol-5-yl)pyrrolidin-2-one] here?
A: < 50 nM

Q: With `CN1CC[C@@](O)(c2cc(-c3cccc(-c4ccnc(Nc5cnn6ccncc56)n4)n3)no2)C1=O` [Example 299, (R)-3-Hydroxy-1-methyl-3-(3-(6-(2-(pyrazolo[1,5-a]pyrazin-3-ylamino)pyrimidin-4-yl)pyridin-2-yl)isoxazol-5-yl)pyrrolidin-2-one] as the compound, how does the IC50 read?
A: < 50 nM

Q: How did the IC50 turn out when `CN1CC[C@@](O)(c2cc(-c3cccc(-c4ccnc(Nc5cc6n(n5)CC5(CC5)C6)n4)n3)no2)C1=O` [Example 300, (R)-3-(3-(6-(2-((4′H,6′H-Spiro[cyclopropane-1,5′-pyrrolo[1,2-b]pyrazol]-2′-yl)amino)pyrimidin-4-yl)pyridin-2-yl)isoxazol-5-yl)-3-hydroxy-1-methylpyrrolidin-2-one] was run?
A: < 50 nM

Q: With `[2H]c1cc(-c2cccc(-n3cc([C@]4(O)CCN(C)C4=O)nn3)n2)nc(Nc2ccn(CC)n2)n1` [Example 301, (R)-3-(1-(6-(2-((1-Ethyl-1H-pyrazol-3-yl)amino)pyrimidin-4-yl-6-d)pyridin-2-yl)-1H-1,2,3-triazol-4-yl)-3-hydroxy-1-methylpyrrolidin-2-one] as the compound, how does the IC50 read?
A: < 50 nM

Q: Which IC50 does the source give for `CN1CC[C@@](O)(c2cc(-c3cccc(-c4ccnc(Nc5cnn6c5COCC6)n4)n3)no2)C1=O` [Example 302, (R)-3-(3-(6-(2-((6,7-Dihydro-4H-pyrazolo[5,1-c][1,4]oxazin-3-yl)amino)pyrimidin-4-yl)pyridin-2-yl)isoxazol-5-yl)-3-hydroxy-1-methylpyrrolidin-2-one] here?
A: < 50 nM

Q: For `CN1CC[C@@](O)(c2cc(-c3cccc(-c4ccnc(Nc5cnc(CO)cn5)n4)n3)no2)C1=O` [Example 303, (R)-3-Hydroxy-3-(3-(6-(2-((5-(hydroxymethyl)pyrazin-2-yl)amino)pyrimidin-4-yl)pyridin-2-yl)isoxazol-5-yl)-1-methylpyrrolidin-2-one], which IC50 is on record?
A: 50 to 500 nM

Q: How did the IC50 turn out when `CN1CC[C@@](O)(c2cc(-c3cccc(-c4ccnc(Nc5nnc(C6CC6)o5)n4)n3)no2)C1=O` [Example 304, (R)-3-(3-(6-(2-((5-Cyclopropyl-1,3,4-oxadiazol-2-yl)amino)pyrimidin-4-yl)pyridin-2-yl)isoxazol-5-yl)-3-hydroxy-1-methylpyrrolidin-2-one] was run?
A: 50 to 500 nM

Q: For `CN1CC[C@@](O)(c2cc(-c3cccc(-c4ccnc(Nc5ncn(CC(F)(F)F)n5)n4)n3)no2)C1=O` [Example 305, (R)-3-Hydroxy-1-methyl-3-(3-(6-(2-((1-(2,2,2-trifluoroethyl)-1H-1,2,4-triazol-3-yl)amino)pyrimidin-4-yl)pyridin-2-yl)isoxazol-5-yl)pyrrolidin-2-one], which IC50 is on record?
A: 50 to 500 nM

Q: Which IC50 does the source give for `CN(C)CCn1nccc1Nc1nccc(-c2cccc(-c3cc([C@]4(O)CCN(C)C4=O)on3)n2)n1` [Example 306, (R)-3-(3-(6-(2-((1-(2-(Dimethylamino)ethyl)-1H-pyrazol-5-yl)amino)pyrimidin-4-yl)pyridin-2-yl)isoxazol-5-yl)-3-hydroxy-1-methylpyrrolidin-2-one] here?
A: > 500 nM
